Measured values: patent US6960470B1 (priority 1998, dated 2005)

Key:
[1] = system: AMPA (glutamate subtype) receptor; experiment: Whole-cell patch-clamp, evoked inward synaptic current at -60 mV (glutamate currents); assay type: cell-based; conditions: 2 μM NBQX; whole-cell patch-clamped neurons
Experimental: Data were prepared as graphs of the effect of agents on the GABAA receptor-mediated transmission in the mutant and wt cells using whole-cell patch-clamping. The data included the evoked synaptic response ([…]) from whole-cell patch-clamped neurons. […] The evoked synaptic responses (averaged up to 15 each) recorded at holding potentials of 0 mV and −60 mV with the stimulating electrode placed in stratum radiatum at site 1, ˜50μm from the recording electrode at site 2, ˜250 μm from the recording electrode and at site two with the stimulus intensity increased ˜3-fold. Graphs were prepared of examples of averaged (up to 15 each) traces from patch-clamp whole-cell recordings-in wt and Δ9 mutation at […] (glutamate currents) and at 0 mV (GABAA currents). The graphs included peak amplitude of response ratios (measured at holding potentials of −60 mV and 0 mV, respectively) from cells in individual slices (n=9 slices each).

GABAA receptor = assay type: cell-based

Compound | block of inward current at holding potential of −60 mV [1] | block of outward current (di-synaptic inhibition) (GABAA receptor) | block of outward current recorded at 0 mV (GABAA receptor)
NS(=O)(=O)c1cccc2c1c([N+](=O)[O-])cc1nc(O)c(O)nc12 [NBQX] | completely blocked | blocked some of the outward current | 
picrotoxin |  |  | completely blocked
